PubChem BioAssay (NCI)
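At the GI50, growth is halved. TGI marks complete inhibition of growth.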

Experiments:
Test in all cases: inhibition of tumour cell growth, NCI panel, 384-well format
SF-268 CNS = tested on: SF-268 CNS
MOLT-4 leukemia = tested on: MOLT-4 leukemia
SNB-75 CNS = tested on: SNB-75 CNS
NCI-H322M lung = tested on: NCI-H322M lung
HOP-62 NSCLC = tested on: HOP-62 NSCLC
MDA-MB-231 breast = tested on: MDA-MB-231 breast
NCI/ADR-RES ovarian = tested on: NCI/ADR-RES ovarian
SN12C renal = tested on: SN12C renal
MDA-MB-435 melanoma = tested on: MDA-MB-435 melanoma
HOP-92 NSCLC = tested on: HOP-92 NSCLC
IGROV1 ovarian = tested on: IGROV1 ovarian
HL-60(TB) leukemia = tested on: HL-60(TB) leukemia
PC-3 prostate = tested on: PC-3 prostate
UACC-62 melanoma = tested on: UACC-62 melanoma
U251 glioblastoma = tested on: U251 glioblastoma
HCT-15 colon = tested on: HCT-15 colon
SF-295 CNS = tested on: SF-295 CNS
T-47D breast = tested on: T-47D breast
UACC-257 melanoma = tested on: UACC-257 melanoma
SR leukemia = tested on: SR leukemia
SK-OV-3 ovarian = tested on: SK-OV-3 ovarian
ACHN renal = tested on: ACHN renal
COLO 205 colon = tested on: COLO 205 colon
NCI-H23 lung = tested on: NCI-H23 lung
OVCAR-3 ovarian = tested on: OVCAR-3 ovarian
DU-145 prostate = tested on: DU-145 prostate
SNB-19 CNS = tested on: SNB-19 CNS
NCI-H226 lung = tested on: NCI-H226 lung
HS 578T breast = tested on: HS 578T breast
TK-10 renal = tested on: TK-10 renal
SK-MEL-5 melanoma = tested on: SK-MEL-5 melanoma
KM12 colon = tested on: KM12 colon
EKVX NSCLC = tested on: EKVX NSCLC
MDA-MB-468 breast = tested on: MDA-MB-468 breast
BT-549 breast = tested on: BT-549 breast
RPMI-8226 leukemia = tested on: RPMI-8226 leukemia
MALME-3M melanoma = tested on: MALME-3M melanoma
SW-620 colon = tested on: SW-620 colon
A549 NSCLC = tested on: A549 NSCLC
OVCAR-5 ovarian = tested on: OVCAR-5 ovarian
SF-539 CNS = tested on: SF-539 CNS
CAKI-1 renal = tested on: CAKI-1 renal
HT29 colon = tested on: HT29 colon
786-0 renal = tested on: 786-0 renal
MCF7 breast = tested on: MCF7 breast
NCI-H460 NSCLC = tested on: NCI-H460 NSCLC
M14 melanoma = tested on: M14 melanoma
RXF 393 renal = tested on: RXF 393 renal
CCRF-CEM leukemia = tested on: CCRF-CEM leukemia
A498 renal = tested on: A498 renal
OVCAR-8 ovarian = tested on: OVCAR-8 ovarian
SK-MEL-2 melanoma = tested on: SK-MEL-2 melanoma
SK-MEL-28 melanoma = tested on: SK-MEL-28 melanoma
NCI-H522 lung = tested on: NCI-H522 lung
OVCAR-4 ovarian = tested on: OVCAR-4 ovarian

## COc1ccc(-c2ccc(/C=C/C(=O)NO)cc2)cc1
SF-268 CNS
  GI50: 967 nM
  TGI: 2870 nM
MOLT-4 leukemia
  GI50: 166 nM
  TGI: 329 nM
SNB-75 CNS
  GI50: 466 nM
  TGI: 4640 nM
NCI-H322M lung
  GI50: 3100 nM
  TGI: 33300 nM
HOP-62 NSCLC
  GI50: 760 nM
  TGI: 2580 nM
MDA-MB-231 breast
  GI50: 391 nM
  TGI: 1730 nM
NCI/ADR-RES ovarian
  GI50: 527 nM
  TGI: 1620 nM
SN12C renal
  GI50: 1290 nM
  TGI: 3810 nM
MDA-MB-435 melanoma
  GI50: 4260 nM
  TGI: 64700 nM
HOP-92 NSCLC
  GI50: 986 nM
  TGI: 4190 nM
IGROV1 ovarian
  GI50: 1680 nM
  TGI: 5020 nM
HL-60(TB) leukemia
  GI50: 255 nM
  TGI: 524 nM
PC-3 prostate
  GI50: 818 nM
  TGI: 9740 nM
UACC-62 melanoma
  GI50: 1930 nM
  TGI: 4350 nM
U251 glioblastoma
  GI50: 1190 nM
  TGI: 2850 nM
HCT-15 colon
  GI50: 332 nM
  TGI: 2730 nM
SF-295 CNS
  GI50: 2840 nM
  TGI: 14200 nM
T-47D breast
  GI50: 1400 nM
  TGI: 5260 nM
UACC-257 melanoma
  GI50: 1380 nM
  TGI: 8800 nM
SR leukemia
  GI50: 195 nM
  TGI: 368 nM
SK-OV-3 ovarian
  GI50: 349 nM
  TGI: 1560 nM
ACHN renal
  GI50: 2100 nM
  TGI: 4230 nM
COLO 205 colon
  GI50: 3310 nM
  TGI: 6560 nM
NCI-H23 lung
  GI50: 728 nM
  TGI: 2340 nM
OVCAR-3 ovarian
  GI50: 237 nM
  TGI: 531 nM
DU-145 prostate
  GI50: 1300 nM
  TGI: 3540 nM
SNB-19 CNS
  GI50: 2520 nM
  TGI: 11900 nM
NCI-H226 lung
  GI50: 457 nM
  TGI: 2410 nM
HS 578T breast
  GI50: 2850 nM
  TGI: 9630 nM
TK-10 renal
  GI50: 1820 nM
  TGI: 7230 nM
SK-MEL-5 melanoma
  GI50: 421 nM
  TGI: 1580 nM
KM12 colon
  GI50: 1510 nM
  TGI: 16000 nM
EKVX NSCLC
  GI50: 2280 nM
  TGI: 11400 nM
MDA-MB-468 breast
  GI50: 292 nM
  TGI: 578 nM
BT-549 breast
  GI50: 624 nM
  TGI: 3510 nM
RPMI-8226 leukemia
  GI50: 262 nM
  TGI: 548 nM
MALME-3M melanoma
  GI50: 1180 nM
  TGI: 3920 nM
SW-620 colon
  GI50: 1820 nM
  TGI: 10200 nM
A549 NSCLC
  GI50: 431 nM
  TGI: 11600 nM
OVCAR-5 ovarian
  GI50: 1940 nM
  TGI: 5930 nM
SF-539 CNS
  GI50: 525 nM
  TGI: 2200 nM
CAKI-1 renal
  GI50: 1750 nM
  TGI: 5590 nM
HT29 colon
  GI50: 2720 nM
  TGI: 16300 nM
786-0 renal
  GI50: 1140 nM
  TGI: 3650 nM
MCF7 breast
  GI50: 1410 nM
  TGI: 4280 nM
NCI-H460 NSCLC
  GI50: 626 nM
  TGI: 2500 nM
M14 melanoma
  GI50: 1450 nM
  TGI: 3280 nM
RXF 393 renal
  GI50: 298 nM
  TGI: 1130 nM
CCRF-CEM leukemia
  GI50: 128 nM
  TGI: 258 nM
A498 renal
  GI50: 1860 nM
  TGI: 11200 nM
OVCAR-8 ovarian
  GI50: 562 nM
  TGI: 2120 nM
SK-MEL-2 melanoma
  GI50: 472 nM
  TGI: 1140 nM
SK-MEL-28 melanoma
  GI50: 2600 nM
  TGI: 7200 nM
NCI-H522 lung
  GI50: 373 nM
  TGI: 1480 nM
OVCAR-4 ovarian
  GI50: 284 nM
  TGI: 12200 nM
